≈ marks a conversion by molar mass, not a printed value.
What was measured:
Assay type in all cases: functional
Escherichia coli = assay: Antibacterial activity against Escherichia coli 10418 after 18 hrs by Etest method
Proteus mirabilis [1] = assay: Antibacterial activity against Proteus mirabilis B2 after 18 hrs by Etest method
Proteus mirabilis [2] = assay: Antibacterial activity against Proteus mirabilis M 44 mutant after 18 hrs by Etest method
Proteus mirabilis [3] = assay: Antibacterial activity against Proteus mirabilis M 48 mutant after 18 hrs by Etest method
Proteus mirabilis [4] = assay: Antibacterial activity against Proteus mirabilis M 55 mutant after 18 hrs by Etest method
Proteus mirabilis [5] = assay: Antibacterial activity against Proteus mirabilis NP14 after 18 hrs by Etest method
Proteus mirabilis [6] = assay: Antibacterial activity against Proteus mirabilis M 19 mutant after 18 hrs by Etest method
Proteus mirabilis [7] = assay: Antibacterial activity against Proteus mirabilis M 21 mutant after 18 hrs by Etest method
Proteus mirabilis [8] = assay: Antibacterial activity against Proteus mirabilis M 23 mutant after 18 hrs by Etest method
Proteus mirabilis [9] = assay: Antibacterial activity against Proteus mirabilis NP37 after 18 hrs by Etest method
Proteus mirabilis [10] = assay: Antibacterial activity against Proteus mirabilis M 29 mutant after 18 hrs by Etest method
Proteus mirabilis [11] = assay: Antibacterial activity against Proteus mirabilis M 31 mutant after 18 hrs by Etest method
Proteus mirabilis [12] = assay: Antibacterial activity against Proteus mirabilis NP43 after 18 hrs by Etest method
Proteus mirabilis [13] = assay: Antibacterial activity against Proteus mirabilis M 12 mutant after 18 hrs by Etest method
Proteus mirabilis [14] = assay: Antibacterial activity against Proteus mirabilis M 17 mutant after 18 hrs by Etest method
Proteus mirabilis [15] = assay: Antibacterial activity against Proteus mirabilis NP55 after 18 hrs by Etest method
Proteus mirabilis [16] = assay: Antibacterial activity against Proteus mirabilis M 35 mutant after 18 hrs by Etest method
Proteus mirabilis [17] = assay: Antibacterial activity against Proteus mirabilis M 40 mutant after 18 hrs by Etest method
Proteus mirabilis [18] = assay: Antibacterial activity against Proteus mirabilis M 42 mutant after 18 hrs by Etest method
Proteus mirabilis [19] = assay: Antibacterial activity against Proteus mirabilis M 26 mutant after 18 hrs by Etest method
Proteus mirabilis [20] = assay: Effect on catheter blockage in Bladder model inoculated with wild-type Proteus mirabilis B2
Proteus mirabilis [21] = assay: Effect on catheter blockage in Bladder model inoculated with Proteus mirabilis M 48 mutant
Proteus mirabilis [22] = assay: Effect on catheter blockage in Bladder model inoculated with Proteus mirabilis M 55 mutant
Proteus mirabilis [23] = assay: Effect on viable cells in urine at time of catheter blockage in Bladder model inoculated with wild-type Proteus mirabilis B2
Proteus mirabilis [24] = assay: Effect on viable cells in urine at time of catheter blockage in Bladder model inoculated with Proteus mirabilis M 48 mutant
Proteus mirabilis [25] = assay: Effect on viable cells in urine at time of catheter blockage in Bladder model inoculated with Proteus mirabilis M 55 mutant
Proteus mirabilis [26] = assay: Effect on pH of residual urine at time of catheter blockage in Bladder model inoculated with wild-type Proteus mirabilis B2
Proteus mirabilis [27] = assay: Effect on pH of residual urine at time of catheter blockage in Bladder model inoculated with Proteus mirabilis M 48 mutant
Proteus mirabilis [28] = assay: Effect on pH of residual urine at time of catheter blockage in Bladder model inoculated with Proteus mirabilis M 55 mutant

Molecule | MIC (Escherichia coli; Escherichia coli, 10418, 18 h) [µg/mL] | MIC (Proteus mirabilis [1]; B2, 18 h) [µg/mL] | MIC (Proteus mirabilis [2]; M 44, 18 h) [µg/mL] | MIC (Proteus mirabilis [3]; M 48, 18 h) [µg/mL] | MIC (Proteus mirabilis [4]; M 55, 18 h) [µg/mL] | MIC (Proteus mirabilis [5]; NP14, 18 h) [µg/mL] | MIC (Proteus mirabilis [6]; M 19, 18 h) [µg/mL] | MIC (Proteus mirabilis [7]; M 21, 18 h) [µg/mL] | MIC (Proteus mirabilis [8]; M 23, 18 h) [µg/mL] | MIC (Proteus mirabilis [9]; NP37, 18 h) [µg/mL] | MIC (Proteus mirabilis [10]; M 29, 18 h) [µg/mL] | MIC (Proteus mirabilis [11]; M 31, 18 h) [µg/mL] | MIC (Proteus mirabilis [12]; NP43, 18 h) [µg/mL] | MIC (Proteus mirabilis [13]; M 12, 18 h) [µg/mL] | MIC (Proteus mirabilis [14]; M 17, 18 h) [µg/mL] | MIC (Proteus mirabilis [15]; NP55, 18 h) [µg/mL] | MIC (Proteus mirabilis [16]; M 35, 18 h) [µg/mL] | MIC (Proteus mirabilis [17]; M 40, 18 h) [µg/mL] | MIC (Proteus mirabilis [18]; M 42, 18 h) [µg/mL] | MIC (Proteus mirabilis [19]; M 26, 18 h) [µg/mL] | other results
CC1(C)S[C@@H]2[C@H](NC(=O)[C@H](N)c3ccccc3)C(=O)N2[C@H]1C(=O)O [AMPICILLIN] | 0.5 (≈ 1.43 µM) | > 256 | > 256 | > 256 | > 256 | 16 (≈ 45.8 µM) | 12 (≈ 34.3 µM) | 16 (≈ 45.8 µM) | 12 (≈ 34.3 µM) | > 256 | > 256 | > 256 | 0.4 (≈ 1.14 µM) | 0.13 (≈ 0.372 µM) | 0.19 (≈ 0.544 µM) | > 256 | > 256 | > 256 | > 256 | > 256 | 
CC1=C(C(=O)O)N2C(=O)[C@@H](NC(=O)[C@H](N)c3ccccc3)[C@H]2SC1 [CEPHALEXIN ANHYDROUS] | 2 (≈ 5.76 µM) | 6 (≈ 17.3 µM) | 4 (≈ 11.5 µM) | 3 (≈ 8.64 µM) | 4 (≈ 11.5 µM) | 3 (≈ 8.64 µM) | 4 (≈ 11.5 µM) | 3 (≈ 8.64 µM) | 3 (≈ 8.64 µM) | 4 (≈ 11.5 µM) | 2 (≈ 5.76 µM) | 3 (≈ 8.64 µM) | 4 (≈ 11.5 µM) | 1.5 (≈ 4.32 µM) | 1 (≈ 2.88 µM) | 4 (≈ 11.5 µM) | 3 (≈ 8.64 µM) | 3 (≈ 8.64 µM) | 4 (≈ 11.5 µM) | 3 (≈ 8.64 µM) | 
O=C(O)c1cn(C2CC2)c2cc(N3CCNCC3)c(F)cc2c1=O [CIPROFLOXACIN] |  | 0.02 (≈ 0.0604 µM) | 0.03 (≈ 0.0905 µM) | 0.02 (≈ 0.0604 µM) | 0.02 (≈ 0.0604 µM) | 0.06 (≈ 0.181 µM) | 0.05 (≈ 0.151 µM) | 0.05 (≈ 0.151 µM) | 0.05 (≈ 0.151 µM) | 0.02 (≈ 0.0604 µM) | 0.008 (≈ 0.0241 µM) | 0.008 (≈ 0.0241 µM) | 0.01 (≈ 0.0302 µM) | 0.006 (≈ 0.0181 µM) | 0.006 (≈ 0.0181 µM) | 0.016 (≈ 0.0483 µM) | 0.016 (≈ 0.0483 µM) | 0.012 (≈ 0.0362 µM) | 0.016 (≈ 0.0483 µM) | 0.012 (≈ 0.0362 µM) | 
CCn1cc(C(=O)O)c(=O)c2ccc(C)nc21 [NALIDIXIC ACID] | 0.38 (≈ 1.64 µM) | 2 (≈ 8.61 µM) | 1.5 (≈ 6.46 µM) | 1.5 (≈ 6.46 µM) | 1.5 (≈ 6.46 µM) | 3 (≈ 12.9 µM) | 2 (≈ 8.61 µM) | 3 (≈ 12.9 µM) | 2 (≈ 8.61 µM) | 4 (≈ 17.2 µM) | 2 (≈ 8.61 µM) | 1.5 (≈ 6.46 µM) | 2 (≈ 8.61 µM) | 1.5 (≈ 6.46 µM) | 2 (≈ 8.61 µM) | 3 (≈ 12.9 µM) | 2 (≈ 8.61 µM) | 1.5 (≈ 6.46 µM) | 2 (≈ 8.61 µM) | 1.5 (≈ 6.46 µM) | 
O=C1CN(/N=C/c2ccc([N+](=O)[O-])o2)C(=O)N1 [NITROFURANTOIN] | 2 (≈ 8.4 µM) | 64 (≈ 269 µM) | 32 (≈ 134 µM) | 24 (≈ 101 µM) | 48 (≈ 202 µM) | 32 (≈ 134 µM) | 32 (≈ 134 µM) | 48 (≈ 202 µM) | 32 (≈ 134 µM) | 24 (≈ 101 µM) | 16 (≈ 67.2 µM) | 24 (≈ 101 µM) | 48 (≈ 202 µM) | 12 (≈ 50.4 µM) | 12 (≈ 50.4 µM) | 64 (≈ 269 µM) | 32 (≈ 134 µM) | 64 (≈ 269 µM) | 48 (≈ 202 µM) | 24 (≈ 101 µM) | 
CCn1cc(C(=O)O)c(=O)c2cc(F)c(N3CCNCC3)cc21 [NORFLOXACIN] | 0.02 (≈ 0.0626 µM) | 0.05 (≈ 0.157 µM) | 0.05 (≈ 0.157 µM) | 0.05 (≈ 0.157 µM) | 0.05 (≈ 0.157 µM) | 0.25 (≈ 0.783 µM) | 0.19 (≈ 0.595 µM) | 0.19 (≈ 0.595 µM) | 0.19 (≈ 0.595 µM) | 0.05 (≈ 0.157 µM) | 0.03 (≈ 0.0939 µM) | 0.02 (≈ 0.0626 µM) | 0.05 (≈ 0.157 µM) | 0.02 (≈ 0.0626 µM) | 0.02 (≈ 0.0626 µM) | 0.05 (≈ 0.157 µM) | 0.03 (≈ 0.0939 µM) | 0.03 (≈ 0.0939 µM) | 0.03 (≈ 0.0939 µM) | 0.03 (≈ 0.0939 µM) | 
Oc1cc(Cl)ccc1Oc1ccc(Cl)cc1Cl [TRICLOSAN] | 0.2 (≈ 0.691 µM) | 0.2 (≈ 0.691 µM) | 40 (≈ 138 µM) | 2 (≈ 6.91 µM) | 40 (≈ 138 µM) | 0.2 (≈ 0.691 µM) | 40 (≈ 138 µM) | 5 (≈ 17.3 µM) | 5 (≈ 17.3 µM) | 0.1 (≈ 0.345 µM) | 10 (≈ 34.5 µM) | 5 (≈ 17.3 µM) | 0.2 (≈ 0.691 µM) | 40 (≈ 138 µM) | 40 (≈ 138 µM) | 0.2 (≈ 0.691 µM) | 40 (≈ 138 µM) | 40 (≈ 138 µM) | 0.8 (≈ 2.76 µM) | 20 (≈ 69.1 µM) | Time (Proteus mirabilis [20]): >48 h; Time (Proteus mirabilis [21]): >48 h; Time (Proteus mirabilis [22]): 44 h; CFU/ml (Proteus mirabilis [23]): 2.07 ×10³ /ml; CFU/ml (Proteus mirabilis [24]): 5.44 ×10⁴ /ml; CFU/ml (Proteus mirabilis [25]): 4.2 ×10⁷ /ml; pH (Proteus mirabilis [26]): 6.28; pH (Proteus mirabilis [27]): 6.51; pH (Proteus mirabilis [28]): 8.84
COc1cc(Cc2cnc(N)nc2N)cc(OC)c1OC [TRIMETHOPRIM] | 0.03 (≈ 0.103 µM) | > 32 | > 32 | > 32 | > 32 | > 32 | > 32 | > 32 | > 32 | > 32 | > 32 | > 32 | 0.4 (≈ 1.38 µM) | 0.19 (≈ 0.654 µM) | 0.25 (≈ 0.861 µM) | > 32 | > 32 | > 32 | > 32 | > 32 | 
GENTAMICIN |  |  |  |  |  |  |  |  |  |  |  |  |  |  |  |  |  |  |  |  | MIC (Escherichia coli): 0.09 µg/mL; MIC (Proteus mirabilis [1]): 0.38 µg/mL; MIC (Proteus mirabilis [2]): 0.38 µg/mL; MIC (Proteus mirabilis [3]): 0.25 µg/mL; MIC (Proteus mirabilis [4]): 0.38 µg/mL; MIC (Proteus mirabilis [5]): 0.13 µg/mL; MIC (Proteus mirabilis [6]): 0.13 µg/mL; MIC (Proteus mirabilis [7]): 0.13 µg/mL; MIC (Proteus mirabilis [8]): 0.09 µg/mL; MIC (Proteus mirabilis [9]): 0.38 µg/mL; MIC (Proteus mirabilis [10]): 0.19 µg/mL; MIC (Proteus mirabilis [11]): 0.13 µg/mL; MIC (Proteus mirabilis [12]): 0.1 µg/mL; MIC (Proteus mirabilis [13]): 0.06 µg/mL; MIC (Proteus mirabilis [14]): 0.06 µg/mL; MIC (Proteus mirabilis [15]): 0.1 µg/mL; MIC (Proteus mirabilis [16]): 0.25 µg/mL; MIC (Proteus mirabilis [17]): 0.13 µg/mL; MIC (Proteus mirabilis [18]): 0.25 µg/mL; MIC (Proteus mirabilis [19]): 0.13 µg/mL
